Assay [1] deals with E7 antigen specific immune response. Nature of the assay: Immunogenicity analysis of different immunogenic composition (humoral and cell mediated). It counts as in vivo. Conditions: mice.
Another assay addresses CD91 (Homo sapiens, UniProt Q07954). Particulars: read-out: binding affinity to CD91 (Kd); cited from earlier work.

A word on the Kd: it is the concentration at which binding is half-saturated.

Chain of CD91 (Q07954 20-4544, species assumed): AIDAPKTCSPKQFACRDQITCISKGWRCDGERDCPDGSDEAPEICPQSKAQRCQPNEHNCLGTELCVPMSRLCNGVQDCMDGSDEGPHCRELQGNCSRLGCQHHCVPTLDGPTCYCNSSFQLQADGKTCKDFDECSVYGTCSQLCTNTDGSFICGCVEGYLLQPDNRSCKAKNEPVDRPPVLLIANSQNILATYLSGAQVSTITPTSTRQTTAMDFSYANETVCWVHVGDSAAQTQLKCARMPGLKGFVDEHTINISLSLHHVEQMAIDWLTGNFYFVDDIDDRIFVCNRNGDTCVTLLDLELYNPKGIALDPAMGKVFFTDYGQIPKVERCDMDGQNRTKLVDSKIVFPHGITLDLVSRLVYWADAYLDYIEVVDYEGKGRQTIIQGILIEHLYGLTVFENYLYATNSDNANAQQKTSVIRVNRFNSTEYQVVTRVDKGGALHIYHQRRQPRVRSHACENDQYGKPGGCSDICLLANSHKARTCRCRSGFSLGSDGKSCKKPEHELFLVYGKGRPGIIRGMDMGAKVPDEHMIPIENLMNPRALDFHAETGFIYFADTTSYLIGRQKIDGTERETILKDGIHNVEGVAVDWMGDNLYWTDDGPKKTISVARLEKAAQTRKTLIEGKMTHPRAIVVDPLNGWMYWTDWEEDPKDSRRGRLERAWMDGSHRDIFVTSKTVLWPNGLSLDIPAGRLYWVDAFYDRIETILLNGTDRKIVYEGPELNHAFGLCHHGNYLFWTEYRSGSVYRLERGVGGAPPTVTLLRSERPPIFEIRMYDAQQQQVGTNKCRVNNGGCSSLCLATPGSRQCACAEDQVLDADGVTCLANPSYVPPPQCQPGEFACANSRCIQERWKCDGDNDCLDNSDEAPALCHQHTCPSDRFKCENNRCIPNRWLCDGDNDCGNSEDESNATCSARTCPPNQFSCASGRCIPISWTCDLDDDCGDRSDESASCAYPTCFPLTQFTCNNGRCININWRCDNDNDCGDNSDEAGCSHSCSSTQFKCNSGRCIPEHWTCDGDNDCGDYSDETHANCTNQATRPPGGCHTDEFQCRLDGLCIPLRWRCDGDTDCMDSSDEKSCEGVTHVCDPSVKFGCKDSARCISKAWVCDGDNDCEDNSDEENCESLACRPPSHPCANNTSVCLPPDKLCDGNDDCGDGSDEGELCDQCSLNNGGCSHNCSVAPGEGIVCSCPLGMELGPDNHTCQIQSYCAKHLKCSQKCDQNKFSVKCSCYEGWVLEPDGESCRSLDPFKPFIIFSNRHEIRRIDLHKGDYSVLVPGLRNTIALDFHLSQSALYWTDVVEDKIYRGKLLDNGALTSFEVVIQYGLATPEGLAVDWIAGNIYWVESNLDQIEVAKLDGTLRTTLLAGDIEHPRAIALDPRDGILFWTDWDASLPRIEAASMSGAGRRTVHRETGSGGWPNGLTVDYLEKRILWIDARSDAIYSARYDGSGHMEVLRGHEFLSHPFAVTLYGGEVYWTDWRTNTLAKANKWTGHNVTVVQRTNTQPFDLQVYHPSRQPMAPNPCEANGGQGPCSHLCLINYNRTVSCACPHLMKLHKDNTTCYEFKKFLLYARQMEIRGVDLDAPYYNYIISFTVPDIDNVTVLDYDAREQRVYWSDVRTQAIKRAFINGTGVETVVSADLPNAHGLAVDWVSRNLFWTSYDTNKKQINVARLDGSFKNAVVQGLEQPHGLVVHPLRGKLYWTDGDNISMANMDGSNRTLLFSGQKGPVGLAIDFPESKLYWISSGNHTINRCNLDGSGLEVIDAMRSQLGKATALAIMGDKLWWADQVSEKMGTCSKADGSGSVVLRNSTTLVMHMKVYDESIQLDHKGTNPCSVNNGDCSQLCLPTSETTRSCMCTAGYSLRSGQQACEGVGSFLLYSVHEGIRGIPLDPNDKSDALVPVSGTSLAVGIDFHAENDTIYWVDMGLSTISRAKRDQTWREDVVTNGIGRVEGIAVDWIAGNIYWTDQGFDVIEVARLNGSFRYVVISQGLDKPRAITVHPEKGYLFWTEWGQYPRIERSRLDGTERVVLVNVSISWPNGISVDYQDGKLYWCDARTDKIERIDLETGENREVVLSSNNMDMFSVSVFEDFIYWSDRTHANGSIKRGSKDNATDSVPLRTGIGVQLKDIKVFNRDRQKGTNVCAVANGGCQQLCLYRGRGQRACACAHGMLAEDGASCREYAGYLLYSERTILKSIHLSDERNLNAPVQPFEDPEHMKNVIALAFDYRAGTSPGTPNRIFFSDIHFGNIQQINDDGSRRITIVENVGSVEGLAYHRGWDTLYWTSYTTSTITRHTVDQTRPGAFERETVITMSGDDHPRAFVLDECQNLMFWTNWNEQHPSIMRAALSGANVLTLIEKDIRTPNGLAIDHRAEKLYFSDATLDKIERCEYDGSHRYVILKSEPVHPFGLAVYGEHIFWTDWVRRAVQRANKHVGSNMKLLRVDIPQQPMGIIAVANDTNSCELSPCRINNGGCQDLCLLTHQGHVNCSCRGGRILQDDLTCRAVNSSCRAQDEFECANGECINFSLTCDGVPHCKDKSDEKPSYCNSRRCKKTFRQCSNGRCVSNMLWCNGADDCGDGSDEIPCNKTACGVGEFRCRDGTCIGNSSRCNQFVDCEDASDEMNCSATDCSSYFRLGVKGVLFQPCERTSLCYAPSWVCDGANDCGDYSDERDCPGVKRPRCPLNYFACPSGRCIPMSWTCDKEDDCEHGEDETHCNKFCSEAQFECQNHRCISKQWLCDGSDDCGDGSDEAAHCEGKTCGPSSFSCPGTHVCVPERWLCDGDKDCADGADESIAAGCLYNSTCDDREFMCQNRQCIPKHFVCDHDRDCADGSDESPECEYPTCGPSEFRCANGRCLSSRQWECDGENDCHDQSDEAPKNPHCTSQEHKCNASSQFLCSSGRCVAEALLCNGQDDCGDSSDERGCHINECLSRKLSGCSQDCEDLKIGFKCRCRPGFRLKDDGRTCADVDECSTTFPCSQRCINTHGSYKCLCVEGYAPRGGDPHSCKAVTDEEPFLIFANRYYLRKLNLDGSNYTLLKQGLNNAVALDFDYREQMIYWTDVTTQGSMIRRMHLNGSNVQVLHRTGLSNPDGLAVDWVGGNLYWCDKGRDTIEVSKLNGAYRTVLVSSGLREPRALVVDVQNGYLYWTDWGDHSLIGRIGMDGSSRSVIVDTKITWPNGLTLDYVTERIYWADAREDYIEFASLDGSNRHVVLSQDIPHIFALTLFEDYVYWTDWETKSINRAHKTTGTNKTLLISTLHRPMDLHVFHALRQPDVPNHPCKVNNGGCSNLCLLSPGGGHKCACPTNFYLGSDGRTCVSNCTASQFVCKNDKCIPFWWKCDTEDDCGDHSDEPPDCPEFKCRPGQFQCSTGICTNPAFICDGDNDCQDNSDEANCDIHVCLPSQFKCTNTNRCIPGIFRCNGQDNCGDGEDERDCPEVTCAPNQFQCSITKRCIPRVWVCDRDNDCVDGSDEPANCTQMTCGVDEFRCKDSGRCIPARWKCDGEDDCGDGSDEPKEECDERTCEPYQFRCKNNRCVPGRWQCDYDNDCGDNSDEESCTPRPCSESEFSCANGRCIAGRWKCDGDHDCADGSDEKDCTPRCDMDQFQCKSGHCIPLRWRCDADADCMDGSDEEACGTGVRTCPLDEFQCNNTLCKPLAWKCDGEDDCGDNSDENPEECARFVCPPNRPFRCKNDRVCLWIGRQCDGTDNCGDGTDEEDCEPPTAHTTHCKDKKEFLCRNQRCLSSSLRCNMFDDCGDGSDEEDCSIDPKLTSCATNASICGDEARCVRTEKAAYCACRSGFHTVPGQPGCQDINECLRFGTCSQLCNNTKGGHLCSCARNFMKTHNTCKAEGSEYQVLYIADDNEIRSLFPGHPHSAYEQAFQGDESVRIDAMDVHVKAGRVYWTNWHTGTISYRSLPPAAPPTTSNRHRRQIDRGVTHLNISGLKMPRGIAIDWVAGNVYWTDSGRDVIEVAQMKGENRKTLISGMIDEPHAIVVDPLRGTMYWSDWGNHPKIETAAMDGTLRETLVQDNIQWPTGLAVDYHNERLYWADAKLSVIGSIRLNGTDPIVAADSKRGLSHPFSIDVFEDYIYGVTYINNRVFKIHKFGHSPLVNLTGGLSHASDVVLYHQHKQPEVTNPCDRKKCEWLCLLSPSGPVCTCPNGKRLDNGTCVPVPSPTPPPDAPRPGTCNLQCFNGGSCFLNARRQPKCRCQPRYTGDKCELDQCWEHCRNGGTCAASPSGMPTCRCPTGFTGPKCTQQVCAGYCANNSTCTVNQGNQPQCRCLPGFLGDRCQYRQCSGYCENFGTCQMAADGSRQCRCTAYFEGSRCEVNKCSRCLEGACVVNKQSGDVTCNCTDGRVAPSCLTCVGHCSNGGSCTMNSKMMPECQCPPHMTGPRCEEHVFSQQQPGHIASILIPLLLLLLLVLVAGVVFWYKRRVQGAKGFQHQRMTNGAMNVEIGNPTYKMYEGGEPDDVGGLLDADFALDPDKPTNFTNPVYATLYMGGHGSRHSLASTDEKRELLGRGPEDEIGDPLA

For the substance “E7 antigen: HPV16 E7 protein (full length), SEQ ID NO: 21, antigen itself only”, the “E7 antigen specific cell mediated immune response” value in assay [1] (combined with GPI-0100 or QS-21) is listed as “weak to strong”. With QS-21 [reference compound], the “adjuvant comparison for stimulating both humoral and cell mediated immune responses” value in assay [1] (with E7 immunogenic proteins, compared with alum) was “better adjuvants”. On to “RAP1: 39 kDa ER resident protein and molecular chaperone for LDL receptor-related protein”, for which the Kd with CD91 is around 3 nM.

The values are drawn from patent US9775898B2, “Vaccine composition comprising an immunogenic protein and combination adjuvants for use in eliciting antigen-specific T-cell responses” (TheVax Genetics Vaccine Co., Ltd., priority 2015, dated 2017).
